Test results as given in ChEMBL document CHEMBL1130835, “Peptidyl beta-homo-aspartals: specific inhibitors of interleukin-1 beta converting enzyme and its homologues (caspases)” (Bioorg Med Chem Lett, 1998).
Each block holds one molecule with its values, some of them ahead of it.

Key:
Papain = biological target: T1, Papain (Carica papaya, UniProt P00784); assay: Ability to inhibit papain was evaluated by amidolytic method using fluorogenic or chromogenic substrates
T1 sequence (P00784 whole entry): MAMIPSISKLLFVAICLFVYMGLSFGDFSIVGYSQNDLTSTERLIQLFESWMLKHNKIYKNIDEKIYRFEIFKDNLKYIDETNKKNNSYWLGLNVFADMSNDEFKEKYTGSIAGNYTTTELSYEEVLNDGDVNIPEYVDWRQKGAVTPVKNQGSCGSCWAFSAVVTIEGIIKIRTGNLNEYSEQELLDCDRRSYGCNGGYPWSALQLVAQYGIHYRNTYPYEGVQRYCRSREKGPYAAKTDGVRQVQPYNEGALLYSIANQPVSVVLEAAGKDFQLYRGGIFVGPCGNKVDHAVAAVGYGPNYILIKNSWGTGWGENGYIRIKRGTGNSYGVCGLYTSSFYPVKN

Prothrombin = Prothrombin (Homo sapiens, UniProt P00734); assay: Ability to inhibit Thrombin was evaluated by amidolytic method using fluorogenic or chromogenic substrates
Serine protease 1 = Serine protease 1 (Homo sapiens, UniProt P07477); assay: Ability to inhibit Trypsin was evaluated by amidolytic method using fluorogenic or chromogenic substrates
Caspase-3 [1] = biological target: T2, Caspase-3 (Homo sapiens, UniProt P42574); assay: Amidolytic activity of THP.1 cell lysate against Caspase-3 using C3-Asp-AMC as a substrate; type: cell-based
T2 sequence (P42574 whole entry): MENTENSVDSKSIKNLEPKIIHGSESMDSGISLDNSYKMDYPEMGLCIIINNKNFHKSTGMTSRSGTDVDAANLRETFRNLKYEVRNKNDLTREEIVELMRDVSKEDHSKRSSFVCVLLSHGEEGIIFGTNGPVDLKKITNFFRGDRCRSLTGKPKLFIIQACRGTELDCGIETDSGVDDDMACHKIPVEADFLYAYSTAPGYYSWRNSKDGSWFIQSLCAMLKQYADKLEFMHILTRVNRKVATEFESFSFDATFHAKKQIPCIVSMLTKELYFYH

Caspase-1 [2] = biological target: T3, Caspase-1 (Homo sapiens, UniProt P29466); assay: Amidolytic activity of THP.1 cell lysate against IL-1 beta converting enzyme using C1-Asp-AMC as a substrate; type: cell-based
T3 sequence (P29466 whole entry): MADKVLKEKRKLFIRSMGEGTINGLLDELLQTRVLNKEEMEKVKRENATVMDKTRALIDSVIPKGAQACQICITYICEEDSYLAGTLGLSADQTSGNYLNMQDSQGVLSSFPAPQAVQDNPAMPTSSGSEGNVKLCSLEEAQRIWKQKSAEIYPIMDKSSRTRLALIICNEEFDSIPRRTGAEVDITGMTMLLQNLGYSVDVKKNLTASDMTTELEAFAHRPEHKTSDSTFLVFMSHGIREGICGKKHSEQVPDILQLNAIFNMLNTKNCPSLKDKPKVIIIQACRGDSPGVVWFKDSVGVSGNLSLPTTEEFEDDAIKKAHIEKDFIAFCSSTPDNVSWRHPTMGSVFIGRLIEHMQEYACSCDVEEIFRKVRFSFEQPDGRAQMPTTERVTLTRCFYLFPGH

Caspase-3 [3] = biological target: T2, Caspase-3; assay: Amidolytic activity of THP.1 cell lysate against Caspase-3 using C3-Asp-AMC as a substrate at 10e -4 M concentration; NI is No Inhibition
Caspase-1 [4] = biological target: T3, Caspase-1; assay: Ability to inhibit IL-1 beta converting enzyme was evaluated in LPS-stimulated human whole blood; type: tissue-based

Serine protease 1, sequence (P07477 whole entry): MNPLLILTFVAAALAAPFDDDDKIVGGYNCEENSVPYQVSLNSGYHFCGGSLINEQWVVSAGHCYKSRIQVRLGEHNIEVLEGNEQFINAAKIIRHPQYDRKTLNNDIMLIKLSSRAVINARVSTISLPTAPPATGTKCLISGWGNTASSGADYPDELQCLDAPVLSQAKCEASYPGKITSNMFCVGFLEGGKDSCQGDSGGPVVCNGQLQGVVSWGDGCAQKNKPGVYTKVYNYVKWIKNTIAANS

SMILES: CC(C)(C)OC(=O)N[C@H](Cc1ccccc1)C(=O)N1CCC[C@@H]1C(=O)N[C@@H](C=O)CCCN=C(N)N
IC50 (Prothrombin): 5.44 µM
IC50 (Serine protease 1): 1.79 µM

SMILES: CC(C)(C)OC(=O)N[C@H](Cc1ccccc1)C(=O)N1CCC[C@@H]1C(=O)N[C@H](CC=O)CCCN=C(N)N
IC50 (Prothrombin): 0.19 µM
IC50 (Serine protease 1): 1.76 µM

SMILES: CC(=O)N[C@@H](CC(=O)O)C(=O)N[C@@H](CCC(=O)O)C(=O)N[C@H](C(=O)N[C@H](CC=O)CC(=O)O)C(C)C
IC50 (Caspase-3 [1]): 0.438 µM
IC50 (Caspase-1 [2]): 0.0223 µM

SMILES: CC(=O)N[C@@H](CC(=O)O)C(=O)N[C@@H](CCC(=O)O)C(=O)N[C@H](C(=O)N[C@H](C=O)CC(=O)O)C(C)C
IC50 (Caspase-3 [3]): Not Active
IC50 (Caspase-1 [2]): 70 µM

SMILES: CC(=O)N[C@@H](Cc1ccc(O)cc1)C(=O)N[C@H](C(=O)N[C@@H](C)C(=O)N[C@H](CC=O)CC(=O)O)C(C)C
IC50 (Caspase-1 [4]): 2.9 µM
IC50 (Caspase-3 [3]): Not Active
IC50 (Caspase-1 [2]): 142 µM

SMILES: CC(C)COC(=O)N[C@@H](Cc1ccccc1)C(=O)N[C@H](C=O)CCCNC(=N)N
IC50 (Papain): 0.13 µM

SMILES: CC(C)(C)OC(=O)N[C@H](Cc1ccccc1)C(=O)N1CCC[C@@H]1C(=O)N[C@H](C=O)CCCNC(=N)N
IC50 (Prothrombin): 0.009 µM
IC50 (Serine protease 1): 0.003 µM

SMILES: CC(C)COC(=O)N[C@@H](Cc1ccccc1)C(=O)N[C@H](CC=O)CCCNC(=N)N
IC50 (Papain): 105 µM

SMILES: CC(=O)N[C@@H](Cc1ccc(O)cc1)C(=O)N[C@H](C(=O)N[C@@H](C)C(=O)N[C@H](C=O)CC(=O)O)C(C)C
IC50 (Caspase-1 [4]): 2 µM
IC50 (Caspase-3 [1]): 190 µM
IC50 (Caspase-1 [2]): 68 µM

The remaining lines, values ahead:

IC50 (Papain): 8.5 µM
SMILES: CC[C@H](C)[C@H](NC(=O)[C@H](CCCN=C(N)N)NC(=O)OCc1ccccc1)C(=O)N[C@@H](C=O)Cc1ccccc1

IC50 (Papain): 65 µM
SMILES: CC[C@H](C)[C@H](NC(=O)[C@H](CCCN=C(N)N)NC(=O)OCc1ccccc1)C(=O)N[C@H](CC=O)Cc1ccccc1

IC50 (Papain): 12.5 µM
SMILES: CC(C)COC(=O)N[C@@H](Cc1ccccc1)C(=O)N[C@@H](C=O)CCCN=C(N)N

IC50 (Papain): 0.07 µM
SMILES: CC[C@H](C)[C@H](NC(=O)[C@H](CCCN=C(N)N)NC(=O)OCc1ccccc1)C(=O)N[C@H](C=O)Cc1ccccc1
